# In US9040545B2, “Heterocyclyl pyrazolopyrimidine analogues as selective JAK inhibitors” (Cellzome Limited, priority 2010, dated 2015):
# Target: T1, JAK3 (Homo sapiens, UniProt P52333)
# T1 construct: endogenous in cells; host or cells: mixed Molt4/Ramos lysate (1:2)
# T1 sequence (P52333 1-1124): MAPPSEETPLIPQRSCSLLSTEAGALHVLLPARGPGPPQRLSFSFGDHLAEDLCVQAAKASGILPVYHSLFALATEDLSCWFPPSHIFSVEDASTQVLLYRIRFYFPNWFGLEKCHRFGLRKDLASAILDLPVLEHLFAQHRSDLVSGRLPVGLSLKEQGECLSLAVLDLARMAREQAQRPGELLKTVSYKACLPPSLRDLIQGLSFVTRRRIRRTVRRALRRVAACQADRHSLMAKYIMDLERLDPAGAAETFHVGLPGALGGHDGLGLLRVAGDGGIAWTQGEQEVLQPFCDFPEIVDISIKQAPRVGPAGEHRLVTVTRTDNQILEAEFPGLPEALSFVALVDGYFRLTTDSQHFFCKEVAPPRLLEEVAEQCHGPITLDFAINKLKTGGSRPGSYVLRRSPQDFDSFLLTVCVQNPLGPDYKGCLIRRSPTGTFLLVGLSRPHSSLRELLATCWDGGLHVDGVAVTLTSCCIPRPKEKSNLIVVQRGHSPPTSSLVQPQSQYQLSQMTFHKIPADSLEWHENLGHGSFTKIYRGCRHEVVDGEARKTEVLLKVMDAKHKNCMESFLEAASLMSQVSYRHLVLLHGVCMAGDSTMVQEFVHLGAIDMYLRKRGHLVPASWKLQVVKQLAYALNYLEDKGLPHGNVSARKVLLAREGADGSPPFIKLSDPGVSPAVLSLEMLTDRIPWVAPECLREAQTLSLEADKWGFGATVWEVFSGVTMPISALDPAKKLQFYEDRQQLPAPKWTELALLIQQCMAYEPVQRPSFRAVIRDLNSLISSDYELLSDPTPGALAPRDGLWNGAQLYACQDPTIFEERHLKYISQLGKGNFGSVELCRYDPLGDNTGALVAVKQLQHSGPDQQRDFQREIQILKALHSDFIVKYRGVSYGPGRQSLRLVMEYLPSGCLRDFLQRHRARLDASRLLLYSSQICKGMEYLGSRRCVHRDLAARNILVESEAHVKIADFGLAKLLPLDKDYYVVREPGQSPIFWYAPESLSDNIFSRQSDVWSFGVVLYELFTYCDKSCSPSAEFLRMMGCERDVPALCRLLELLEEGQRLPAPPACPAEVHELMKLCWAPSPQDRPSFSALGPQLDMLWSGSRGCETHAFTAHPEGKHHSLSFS
# Experiment: Kinobeads assay, JAK3
# Format: binding
# Settings: mixed Molt4/Ramos lysate, read-out: Inhibition values (IC50) JAK3
# Method: The compounds of the present invention as described in the previous examples were tested in a Kinobeads™ assay as described for ZAP-70 (WO-A 2007/137867). Briefly, test compounds (at various concentrations) and the affinity matrix with the immobilized aminopyrido-pyrimidine ligand 24 were added to cell lysate aliquots and allowed to bind to the proteins in the lysate sample. After the incubation time the beads with captured proteins were separated from the lysate. Bound proteins were then eluted and the presence of JAK2 and JAK3 was detected and quantified using specific antibodies in a dot blot procedure and the Odyssey infrared detection system. Dose response curves for individual kinases were generated and IC50 values calculated. Kinobeads™ assays for ZAP-70 (WO-A 2007/137867) and for kinase selectivity profiling (WO-A 2006/134056) have been previously described.
# The affinity matrix was washed two times with 15 mL of 1×DP buffer containing 0.2% NP40 (IGEPAL® CA-630, Sigma, #I3021) and then resuspended in 1×DP buffer containing 0.2% NP40 (3% beads slurry).
# 5×DP buffer 250 mM Tris-HCl pH 7.4, 25% Glycerol, 7.5 mM MgCl2, 750 mM NaCl, 5 mM Na3VO4; filter the 5×DP buffer through a 0.22 μm filter and store in aliquots at −80° C. The 5×DP buffer is diluted with H2O to 1×DP buffer containing 1 mM DTT and 25 mM NaF.
# Stock solutions of test compounds were prepared in DMSO. In a 96 well plate 30 μL solution of diluted test compounds at 5 mM in DMSO were prepared. Starting with this solution a 1:3 dilution series (9 steps) was prepared. For control experiments (no test compound) a buffer containing 2% DMSO was used.
# Molt4 cells (ATCC catalogue number CRL-1582) and Ramos cells (ATCC catalogue number CRL-1596) were grown in 1 L Spinner flasks (Integra Biosciences, #182101) in suspension in RPMI 1640 medium (Invitrogen, #21875-034) supplemented with 10% Fetal Bovine Serum (Invitrogen) at a density between 0.15×106 and 1.2×10^6 cells/mL. Cells were harvested by centrifugation, washed once with 1×PBS buffer (Invitrogen, #14190-094) and cell pellets were frozen in liquid nitrogen and subsequently stored at −80° C. Cells were homogenized in a Potter S homogenizer in lysis buffer: 50 mM Tris-HCl, 0.8% NP40, 5% glycerol, 150 mM NaCl, 1.5 mM MgCl2, 25 mM NaF, 1 mM sodium vanadate, 1 mM DTT, pH 7.5. One complete EDTA-free tablet (protease inhibitor cocktail, Roche Diagnostics, 1873580) per 25 mL buffer was added. The material was dounced 10 times using a mechanized POTTER S, transferred to 50 mL falcon tubes, incubated for 30 minutes on ice and spun down for 10 minutes at 20,000 g at 4° C. (10,000 rpm in Sorvall SLA600, precooled). The supernatant was transferred to an ultracentrifuge (UZ)-polycarbonate tube (Beckmann, 355654) and spun for 1 hour at 100,000 g at 4° C. (33.500 rpm in Ti50.2, precooled). The supernatant was transferred again to a fresh 50 mL falcon tube, the protein concentration was determined by a Bradford assay (BioRad) and samples containing 50 mg of protein per aliquot were prepared. The samples were immediately used for experiments or frozen in liquid nitrogen and stored frozen at −80° C.
# Cell lysate (approximately 50 mg protein per plate) was thawed in a water bath at room temperature and then stored on ice. To the thawed cell lysate 1×DP 0.8% NP40 buffer containing protease inhibitors (1 tablet for 25 mL buffer; EDTA-free protease inhibitor cocktail; Roche Diagnostics 1873580) was added in order to reach a final protein concentration of 10 mg/mL total protein. The diluted cell lysate was stored on ice. Mixed Molt4/Ramos lysate was prepared by combining one volume of Molt4 lysate and two volumes of Ramos lysate (ratio 1:2).
# To a 96 well filter plate (Multiscreen HTS, BV Filter Plates, Millipore #MSBVN1250) were added per well: 100 μL affinity matrix (3% beads slurry), 3 μL of compound solution, and 50 μL of diluted lysate. […]
row,IC50,Compound
1,< 100 nM,"CN(C)CCCn1cc(Nc2ncc3cnn(Cc4cccc(N5CCOCC5=O)c4)c3n2)cn1 [Example 28, 4-(3-((6-((1-(3-(Dimethylamino)propyl)-1H-pyrazol-4-yl)amino)-1H-pyrazolo[3,4-d]pyrimidin-1-yl)methyl)phenyl)morpholin-3-one]"
2,< 100 nM,"Cn1cc(Nc2ncc3cnn(Cc4cccc(N5CCOCC5)c4Cl)c3n2)cn1 [Example 103, 1-(2-chloro-3-morpholinobenzyl)-N-(1-methyl-1H-pyrazol-4-yl)-1H-pyrazolo[3,4-d]pyrimidin-6-amine]"
3,< 100 nM,"OCCn1cc(Nc2ncc3cnn(Cc4cccc(N5CCOCC5)c4F)c3n2)cn1 [Example 39, 2-(4-((1-(2-Fluoro-3-morpholinobenzyl)-1H-pyrazolo[3,4-d]pyrimidin-6-yl)amino)-1H-pyrazol-1-yl)ethanol]"
4,< 100 nM,"CNC(=O)CCn1cc(Nc2ncc3cnn(Cc4cccc(N5CCOCC5)c4)c3n2)cn1 [Example 24, N-Methyl-3-(4-((1-(3-morpholinobenzyl)-1H-pyrazolo[3,4-d]pyrimidin-6-yl)amino)-1H-pyrazol-1-yl)propanamide]"
5,< 100 nM,"CN(C)CC1(Cn2cc(Nc3ncc4cnn(Cc5cccc(N6CCOCC6)c5)c4n3)cn2)COC1 [Example 31, N-(1-((3-((Dimethylamino)methyl)oxetan-3-yl)methyl)-1H-pyrazol-4-yl)-1-(3-morpholinobenzyl)-1H-pyrazolo[3,4-d]pyrimidin-6-amine]"
6,< 100 nM,"Cn1cc(Nc2ncc3cnn(Cc4cc(-c5cnn(C)c5)cc(F)c4F)c3n2)cn1 [Example 126, 1-(2,3-difluoro-5-(1-methyl-1H-pyrazol-4-yl)benzyl)-N-(1-methyl-1H-pyrazol-4-yl)-1H-pyrazolo[3,4-d]pyrimidin-6-amine]"
7,100 to 1000 nM,"Cn1cc(Nc2ncc3cnn(Cc4cccc(N5CCC(F)(F)CC5)c4)c3n2)cn1 [Example 19, 1-(3-(4,4-Difluoropiperidin-1-yl)benzyl)-N-(1-methyl-1H-pyrazol-4-yl)-1H-pyrazolo[3,4-d]pyrimidin-6-amine]"
8,< 100 nM,"CNCC1(Cn2cc(Nc3ncc4cnn(Cc5cccc(N6CCOCC6)c5)c4n3)cn2)COC1 [Example 41, N-(1-((3-((Methylamino)methyl)oxetan-3-yl)methyl)-1H-pyrazol-4-yl)-1-(3-morpholinobenzyl)-1H-pyrazolo[3,4-d]pyrimidin-6-amine]"
9,< 100 nM,"Cn1cc(Nc2ncc3cnn(Cc4cccc(CN5CCOCC5)c4)c3n2)cn1 [Example 7, N-(1-Methyl-1H-pyrazol-4-yl)-1-(3-(morpholinomethyl)benzyl)-1H-pyrazolo[3,4-d]pyrimidin-6-amine]"
10,< 100 nM,"Cn1cc(-c2cc(F)c(F)c(Cn3ncc4cnc(Nc5cnn(CCO)c5)nc43)c2)cn1 [Example 127, 2-(4-((1-(2,3-difluoro-5-(1-methyl-1H-pyrazol-4-yl)benzyl)-1H-pyrazolo[3,4-d]pyrimidin-6-yl)amino)-1H-pyrazol-1-yl)ethanol]"
11,< 100 nM,"Cn1cc(Nc2ncc3cnn(Cc4cc(F)cc(N5CC6(COC6)C5)c4)c3n2)cn1 [Example 90, 1-(3-fluoro-5-(2-oxa-6-azaspiro[3.3]heptan-6-yl)benzyl)-N-(1-methyl-1H-pyrazol-4-yl)-1H-pyrazolo[3,4-d]pyrimidin-6-amine]"
12,< 100 nM,"CNCCCn1cc(Nc2ncc3cnn(Cc4cc(F)cc(N5CCOCC5=O)c4)c3n2)cn1 [Example 99, 4-(3-fluoro-5-((6-((1-(3-(methylamino)propyl)-1H-pyrazol-4-yl)amino)-1H-pyrazolo[3,4-d]pyrimidin-1-yl)methyl)phenyl)morpholin-3-one]"
13,100 to 1000 nM,"Cn1cc(Nc2ncc3cnn(Cc4cc(N5CCOCC5)cc(F)c4F)c3n2)cn1 [Example 37, 1-(2,3-Difluoro-5-morpholinobenzyl)-N-(1-methyl-1H-pyrazol-4-yl)-1H-pyrazolo[3,4-d]pyrimidin-6-amine]"
14,< 100 nM,"CCCn1cc(-c2cccc(Cn3ncc4cnc(Nc5cnn(C)c5)nc43)c2)cn1 [Example 119, N-(1-methyl-1H-pyrazol-4-yl)-1-(3-(1-propyl-1H-pyrazol-4-yl)benzyl)-1H-pyrazolo[3,4-d]pyrimidin-6-amine]"
